Entries after “also recorded” stand apart in the source; their conditions may differ. Where two headings read alike, the source gives them in different places.
Experiments:
[1] = tested on: polyoma virus-induced hemangioendothelioma; conditions: topical imiquimod; cited from earlier work
[2] = tested on: cytokines including IL-2 and IFN-γ; conditions: as a result of IL-12 production; cited from earlier work
IFN-α and TNF-α [3] = conditions: rats; topical 1 and 5% cream; cited from earlier work
[4] = tested on: epithelioid hemangioendothelioma (EH); experiment: Clinical case: 5% imiquimod topical cream in a patient with epithelioid hemangioendothelioma; type: in vivo, human
Excerpt: EH is a low grade malignant vascular tumor that occurs most commonly in the superficial or deep soft tissues of the body. The patient refused surgery for personal reasons, but acquiesced to the use of 5% imiquimod cream, even though such usage was off label.
A patient developed a nodule on the left cheek that started to grow over the period of 6 months. […] However, they were willing to apply 5% imiquimod topical cream after they were informed of the success of this agent in treatment of some skin cancers and hemangiomas.

[5] = tested on: Lichen Sclerosus (LS) lesions; experiment: Clinical case: topical imiquimod 5% cream in a patient with penile Lichen Sclerosus; type: in vivo, human; conditions: person; for Side effects / local reaction at treated areas: imiquimod 5% cream every other day, reaction after 2 weeks; for Disappearance of LS lesions: imiquimod 5% cream topically every other day for 2 weeks, assessed two weeks after stopping
Excerpt: A person presented to our office (MIM) with the main complaint of whitish patches on the penis of 2 months duration associated with occasional pruritus. […] Because of its immunomodulatory effects, treatment of the LS lesions with imiquimod 5% cream was offered to the patient. It was clearly explained to them that this was an off label use of the medication. They began topical application to the affected areas every other day.

IFN-α and TNF-α [6] = conditions: nude mice; topical 1 and 5% cream; cited from earlier work
[7] = tested on: infantile hemangioma (IH); experiment: Clinical cases: topical 5% imiquimod cream in 4 patients with infantile hemangioma; type: in vivo, human
Excerpt: The option of topical 5% imiquimod cream at a frequency of three times per week was offered to the parents of 4 patients with IH. In each case this treatment option was found acceptable by both parents, who fully understood that this was an off label use of the medication.
A child presented for consultation with an IH on the frontal scalp (3.0×2.5 cm) that was noticed and enlarged rapidly.
A child presented with a red-grey bulbous, 4.5 cm in diameter IH on the frontal scalp that appeared and grew rapidly. MRI analysis supported the clinical diagnosis of IH. […] The medication at the parent's request was discontinued. […] Imiquimod was restarted and increased to every other day for 6 weeks. […] Therapy was discontinued.
A healthy infant was born with a small reddish, flat IH over the left lower lip that started to grow rapidly. Imiquimod, 5%, cream was applied every other day to the outer lip area only. […] The patient is […] and continues the treatment.
An infant was born with a IH on the right upper eyelid that grew rapidly during their first few months life. An MRI study excluded any involvement of any underling ocular structure. Topical application of imiquimod 5% cream was applied every other day for one month over the entire IH.

In the case of `CC(C)Cn1cnc2c(N)nc3ccccc3c21` [imiquimod], the Apoptosis [1] is given as “increased apoptosis”, the Intratumoral mast cells [1] is given as “increased intratumoral mast cells” and the TNF-α level [1] is given as “elevated levels”. For the same molecule, the “Tissue inhibitor of metalloproteinases type 1 (TIMP-1) level” value [1] was “elevated levels”, the Cytokine production [2] was “production of other cytokines including IL-2 and IFN-γ” and the IFN-α (IFN-α and TNF-α [3]) was “local increase”. For the same molecule, the TNF-α (IFN-α and TNF-α [3]) was “local increase”, the Nodule size ([4]; after 2 weeks of application) was “decreased remarkably in size” and the Biopsy histology ([4]; biopsy just before surgery) was “scarring in the central cleared area and some residual tumor with marked inflammation in the peripheral inflamed rim”. For the same molecule, the “Lesion course in the interim before surgery” value ([4]; interim before surgery) was “continued to improve in the interim, developing a central cleared area”, the Side effects ([4]; person, 2.5 cm nodule left cheek, after 2 weeks of application) was “erythema and crusting” and the Re-biopsy histology ([4]; re-biopsy after 2 weeks of application) was “persistent hemangioendothelioma but with mild atypia and marked inflammation and fibrosis”. The Surgical specimen histology ([4]; surgical specimen) was “only scarring with no evidence of tumor”, the “Side effects / local reaction at treated areas” value [5] was “strong reaction at the treated areas with pruritus, burning and intermittently mild pain; also recorded: erythematous, edematous plaques that were well defined and did not extend onto uninvolved skin” and the “Side effects / local reaction at treated areas” value ([5]; listed as Imiquimod) was “minimal side-effects”. For the same molecule, the “Disappearance of LS lesions” value [5] was “complete disappearance of the lesions”, the “Disappearance of LS lesions” value ([5]; listed as Imiquimod) was “all the lesions of LS that were treated and developed the reaction had disappeared leaving no signs of any cutaneous change” and the IFN-α (IFN-α and TNF-α [6]) was “local increase”. For the same molecule, the TNF-α (IFN-α and TNF-α [6]) was “local increase”, the IH lesion response ([7]; Case 1: frontal scalp IH 3.0×2.5 cm, after 4 weeks of thrice weekly application) was “less protuberant” and the Side effects ([7]; Case 1, after 4 weeks of thrice weekly application) was “marked erythema and crusting”. For the same molecule, the IH lesion response ([7]; Case 1, after therapy discontinued for 2 weeks) was “marked reduction in the size of the IH”, the Side effects ([7]; Case 1, application every other day for 2 weeks) was “reappearance of inflammation and crusting” and the IH lesion response ([7]; Case 1, follow-up 4 weeks after end of therapy) was “virtually complete clinical regression of the IH with return to normal skin color”. For the same molecule, the Recurrence at follow-up ([7]; Case 1, most recent follow-up) was “no recurrence of the lesion”, the Side effects ([7]; Case 2: frontal scalp IH 4.5 cm, after 3 weeks of 3 times weekly) was “marked crusting and erythema” and the IH lesion response ([7]; Case 2, four weeks after the 6 week course) was “near complete regression of the lesion”. The “IH lesion at last follow-up” value ([7]; Case 2, last follow-up) was “the lesion had completely disappeared”, the Side effects ([7]; Case 2, restarted, every other day for 6 weeks) was “recurrence of erythema and crusting” and the “IH lesion course after discontinuation” value ([7]; Case 2, two months after medication discontinued) was “rapid regrowth of the lesion”. The Side effects ([7]; Case 3: IH left lower lip, 5% cream every other day to outer lip area, after 2 weeks) was “marked inflammation and crusting over the lip area”, the “IH lesion response, untreated area” value ([7]; Case 3, inner buccal mucosa (untreated)) was “persisted but had also decreased in size” and the “IH lesion response, treated area” value ([7]; Case 3, outer lip area, after one and a half months of therapy) was “most of the IH over the outer lip area had regressed”. The Side effects ([7]; Case 4: IH right upper eyelid, 5% cream every other day) was “Erythema and crusting developed in two weeks”, the IH lesion response ([7]; Case 4, after one month of application every other day) was “regressed almost to the skin level” and the Neurologic examination ([7]; all patients of the report) was “none showed any adverse effects”. The “Outcome of IH lesions” value ([7]; the other two patients, treatment continuing) was “continue to respond dramatically to treatment” and the “Outcome of IH lesions” value ([7]; the two patients who completed therapy, at least one year of follow up) was “complete disappearance of their lesions with no recurrence at least at one year of follow up”.

Reference: US20050009858A1, “Imiquimod therapies” (priority 2001, published 2005)
